Reference: patent US20170050957A1, “4-AMINO-6-(HETEROCYCLIC)PICOLINATES AND 6-AMINO-2-(HETEROCYCLIC)PYRIMIDINE-4-CARBOXYLATES AND THEIR USE AS HERBICIDES” (Dow AgroSciences LLC, priority 2013, published 2017)
Where two headings read alike, the source gives them in different places.

How the values were obtained:
[1] = test system: Key Broadleaf Weed and Crop Species; experiment: Post-emergent Test II herbicidal activity (Table 15); type: in vivo; conditions: post-emergence, 336 h, 14 d; for pest or weed control at 35 g/ha: 35 g ai/ha; for pest or weed control at 70 g/ha: 70 g ai/ha; for pest or weed control at 140 g/ha: 140 g ai/ha
Summary of the method: (§1)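 Greenhouse-grown seedlings at first/second true leaf receive a track spray at 187 L/ha, using a highest rate plus two-fold serial dilutions down to 1/16×. Watering is by subirrigation to avoid wash-off. Percent injury (0-100) is judged by eye at 14 d against untreated plants.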

[2] = test system: Key Grass and Sedge Weeds as well as Grass Crops; experiment: Post-emergent Test II herbicidal activity (Table 16); type: in vivo; conditions: post-emergence, 336 h, 14 d; for pest or weed control at 35 g/ha: 35 g ai/ha; for pest or weed control at 70 g/ha: 70 g ai/ha; for pest or weed control at 140 g/ha: 140 g ai/ha
Summary of the method: as §1

undesirable vegetation = experiment: Herbicidal activity, comparison X is CF with X is CH; type: in vivo; conditions: 1.08 and 1.09 vs 1.21 and 1.22; 1.15 and 1.16 vs 1.23 and 1.24; A is A15
[3] = Abutilon theophrasti, velvetleaf (Abutilon theophrasti), read-out: Visual Growth Reduction (%) 14 Days After Application, ABUTH
[4] = Amaranthus retroflexus, redroot pigweed (Amaranthus retroflexus), read-out: Visual Growth Reduction (%) 14 Days After Application, AMARE
[5] = Brassica napus, oilseed rape, canola (Brassica napus), read-out: Visual Growth Reduction (%) 14 Days After Application, BRSNN
[6] = Chenopodium album, lambsquarters (Chenopodium album), read-out: Visual Growth Reduction (%) 14 Days After Application, CHEAL
[7] = Euphorbia heterophylla, wild poinsettia (Euphorbia heterophylla), read-out: Visual Growth Reduction (%) 14 Days After Application, EPHHL
[8] = Helianthus annuus, sunflower (Helianthus annuus), read-out: Visual Growth Reduction (%) 14 Days After Application, HELAN
[9] = Cyperus esculentus, yellow nutsedge (Cyperus esculentus), read-out: Visual Growth Reduction (%) 14 Days After Application, CYPES
[10] = Echinochloa crus-galli, barnyardgrass (Echinochloa crus-galli), read-out: Visual Growth Reduction (%) 14 Days After Application, ECHCG
[11] = Oryza sativa, rice (Oryza sativa), read-out: Visual Growth Reduction (%) 14 Days After Application, ORYSA
[12] = Setaria faberi, giant foxtail (Setaria faberi), read-out: Visual Growth Reduction (%) 14 Days After Application, SETFA
[13] = Triticum aestivum, wheat, spring (Triticum aestivum), read-out: Visual Growth Reduction (%) 14 Days After Application, TRZAS
[14] = Zea mays, maize, corn (Zea mays), read-out: Visual Growth Reduction (%) 14 Days After Application, ZEAMX

| SMILES | pest or weed control at 35 g/ha [1, 3] [%] | pest or weed control at 70 g/ha [1, 3] [%] | pest or weed control at 140 g/ha [1, 3] [%] | pest or weed control at 35 g/ha [1, 4] [%] | pest or weed control at 70 g/ha [1, 4] [%] | pest or weed control at 140 g/ha [1, 4] [%] | pest or weed control at 35 g/ha [1, 5] [%] | pest or weed control at 70 g/ha [1, 5] [%] | pest or weed control at 140 g/ha [1, 5] [%] | pest or weed control at 35 g/ha [1, 6] [%] | pest or weed control at 70 g/ha [1, 6] [%] | pest or weed control at 140 g/ha [1, 6] [%] | pest or weed control at 35 g/ha [1, 7] [%] | pest or weed control at 70 g/ha [1, 7] [%] | pest or weed control at 140 g/ha [1, 7] [%] | pest or weed control at 35 g/ha [1, 8] [%] | pest or weed control at 70 g/ha [1, 8] [%] | pest or weed control at 140 g/ha [1, 8] [%] | pest or weed control at 35 g/ha [2, 9] [%] | pest or weed control at 70 g/ha [2, 9] [%] | further results |
| --- | --- | --- | --- | --- | --- | --- | --- | --- | --- | --- | --- | --- | --- | --- | --- | --- | --- | --- | --- | --- | --- |
| COC(=O)c1nc(-c2ccc3cc[nH]c3c2)c(F)c(N)c1Cl [Compound 1.08] | 85 to 94 | 95 to 100 | 95 to 100 | 95 to 100 | 95 to 100 | 95 to 100 | 45 to 59 | 75 to 84 | 85 to 94 | 95 to 100 | 95 to 100 | 95 to 100 | 95 to 100 | 95 to 100 | 95 to 100 | 85 to 94 | 95 to 100 | 95 to 100 | 0 to 29 | 0 to 29 | pest or weed control at 140 g/ha [2, 9]: 0 to 29%; pest or weed control at 35 g/ha [2, 10]: 85 to 94%; pest or weed control at 70 g/ha [2, 10]: 95 to 100%; pest or weed control at 140 g/ha [2, 10]: 95 to 100%; pest or weed control at 35 g/ha [2, 11]: 0 to 29%; pest or weed control at 70 g/ha [2, 11]: 0 to 29%; pest or weed control at 140 g/ha [2, 11]: 0 to 29%; pest or weed control at 35 g/ha [2, 12]: 0 to 29%; pest or weed control at 70 g/ha [2, 12]: 60 to 74%; pest or weed control at 140 g/ha [2, 12]: 75 to 84%; pest or weed control at 35 g/ha [2, 13]: 0 to 29%; pest or weed control at 70 g/ha [2, 13]: 0 to 29%; pest or weed control at 140 g/ha [2, 13]: 30 to 44%; pest or weed control at 35 g/ha [2, 14]: 45 to 59%; pest or weed control at 70 g/ha [2, 14]: 75 to 84%; pest or weed control at 140 g/ha [2, 14]: 85 to 94%; activity when X is CF compared with X is CH (undesirable vegetation): significant increase in activity; melting point: 66 to 69 °C |
| COC(=O)c1nc(-c2ccc3cc[nH]c3c2F)c(F)c(N)c1Cl [Compound 1.15, Methyl 4-amino-3-chloro-5-fluoro-6-(7-fluoro-1H-indol-6-yl)picolinate] | 95 to 100 | 95 to 100 | 95 to 100 | 95 to 100 | 95 to 100 | 95 to 100 | 75 to 84 | 95 to 100 | 95 to 100 | 95 to 100 | 95 to 100 | 95 to 100 | 95 to 100 | 95 to 100 | 95 to 100 | 95 to 100 | 95 to 100 | 95 to 100 | 0 to 29 | 60 to 74 | pest or weed control at 140 g/ha [2, 9]: 45 to 59%; pest or weed control at 35 g/ha [2, 10]: 75 to 84%; pest or weed control at 70 g/ha [2, 10]: 85 to 94%; pest or weed control at 140 g/ha [2, 10]: 95 to 100%; pest or weed control at 35 g/ha [2, 11]: 0 to 29%; pest or weed control at 70 g/ha [2, 11]: 0 to 29%; pest or weed control at 140 g/ha [2, 11]: 30 to 44%; pest or weed control at 35 g/ha [2, 12]: 60 to 74%; pest or weed control at 70 g/ha [2, 12]: 60 to 74%; pest or weed control at 140 g/ha [2, 12]: 85 to 94%; pest or weed control at 35 g/ha [2, 13]: 45 to 59%; pest or weed control at 70 g/ha [2, 13]: 60 to 74%; pest or weed control at 140 g/ha [2, 13]: 60 to 74%; pest or weed control at 35 g/ha [2, 14]: 0 to 29%; pest or weed control at 70 g/ha [2, 14]: 30 to 44%; pest or weed control at 140 g/ha [2, 14]: 60 to 74%; activity when X is CF compared with X is CH (undesirable vegetation): significant increase in activity |
